# Target: T1, human 5-HT4(a) (Homo sapiens, UniProt Q13639)
# T1 construct: host or cells: GeneBIAzer HTR4-CRE-bla CHO-K1 cells
# Assay: Evaluation of agonistic activity in CHO-K1 cells expressing human 5-HT4(a) (GeneBIAzer HTR4-CRE-bla CHO-K1 cells, beta-lactamase fluorescence ratio, EC50 from 8 concentrations)
# Assay type: cell-based
# How it was run: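 HTR4-CRE-bla CHO-K1 cells (10^4 per well, overnight in 1% FBS medium) exposed to compound for 5 h, then beta-lactamase substrate 2 h in the dark. Fluorescence ratio at 465/535 nm after 410 nm excitation; EC50 by non-linear regression over 8 concentrations.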
# T1 sequence (Q13639 1-387 isoform Q13639-2): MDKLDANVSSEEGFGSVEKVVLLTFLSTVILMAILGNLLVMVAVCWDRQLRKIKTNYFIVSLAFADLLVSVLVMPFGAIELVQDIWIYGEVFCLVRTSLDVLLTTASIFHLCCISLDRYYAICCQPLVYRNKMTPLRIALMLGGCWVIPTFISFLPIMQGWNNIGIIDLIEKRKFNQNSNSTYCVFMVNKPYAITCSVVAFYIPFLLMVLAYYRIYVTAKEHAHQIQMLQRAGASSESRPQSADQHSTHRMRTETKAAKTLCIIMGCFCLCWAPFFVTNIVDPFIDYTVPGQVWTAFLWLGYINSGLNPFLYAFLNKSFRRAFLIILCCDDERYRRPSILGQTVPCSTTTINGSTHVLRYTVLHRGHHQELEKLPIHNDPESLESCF
row,Compound,EC50
1,"CCCc1cc(N2CCCCC2CCO)nc(Nc2cccc([N+](=O)[O-])c2)n1 (stereo not drawn) [Example 141, 2-{1-[2-(3-nitrophenylamino)-6-propylpyrimidin-4-yl]piperidin-2-yl}ethanol]",0.15 nM
2,"CCCCc1cc(N2CCC[C@@H](NC(C)=O)C2)nc(Nc2ccc(N)c(C(F)(F)F)c2)n1 [Example 238, (R)—N-{1-[2-(4-amino-3-trifluoromethylphenylamino)-6-butylpyrimidin-4-yl]piperidin-3-yl}acetamide]",0.0083 nM
3,"CCCc1cc(N2CCCCC2CCO)nc(Nc2ccc(N)c(C#N)c2)n1 (stereo not drawn) [Example 179, 2-amino-5-{4-[2-(2-hydroxyethyl)piperidin-1-yl]-6-propylpyrimidin-2-ylamino}benzonitrile]",0.027 nM

# Other lines, results leading:
row,EC50,Compound
1,0.093 nM,"CCCCCN[C@H]1CCCN(c2cc(CCC)nc(Nc3ccc(C)c(C#N)c3)n2)C1 [Example 155, (S)-5-{4-[3-(pentylamino)piperidin-1-yl]-6-propylpyrimidin-2-ylamino}-2-methylbenzonitrile]"
2,0.013 nM,"CCCc1cc(N2CCC[C@@H](NC)C2)nc(Nc2ccc(N)c(C#N)c2)n1 [Example 308, (R)-2-amino-5-({4-[3-(methylamino)piperidin-1-yl]-6-propylpyrimidin-2-yl}amino)benzonitrile]"
3,0.0034 nM,"CCCc1cc(N2CCCC(NC(C)=O)C2)nc(Nc2ccc(N)c([N+](=O)[O-])c2)n1 (stereo not drawn) [Example 275, N-{1-[2-(4-amino-3-nitrophenylamino)-6-propylpyrimidin-4-yl]piperidin-3-yl}acetamide]"

# — patent publication US9850227B2 (YUHAN CORPORATION, priority 2011, dated 2017)
